Test results from patent US20050208088A1, “Pesticidal composition and method for pest control” (priority 2004, published 2005).

Test system: thrips
Experiment: Thrips control in cotton, seed treatment field trials (1) and (2)
Format: in vivo, thrips on cotton
Conditions: for Adult Thrips 14 DAP / Immature Thrips 14 DAP / Immature Thrips 21 DAP: cotton DP 555 BR, seed treatment; for Adult Thrips 14 DAP / Immature Thrips 14 DAP: 14 days after planting; for Adult Thrips 14 DAP: number of adult thrips; for Immature Thrips 14 DAP / Immature Thrips 21 DAP: number of immature thrips; for Immature Thrips 21 DAP / Damage 21 DAP: 21 days after planting; for Damage 21 DAP: visual plant damage rating, scale 1 to 5 (1=no damage, 3=moderate damage, 5=severe damage)
Experimental: (a) A base fungicide seed treatment formulation is prepared by diluting a concentrate containing 3.32% mefenoxam (CAS# 70630-17-0), 1.11% fludioxonil (CAS# 131341-86-1) and 6.64% azoxystrobin (CAS# 131860-33-8), into water as a carrier. […] Seed treated are allowed to air dry and shipped and stored at ambient temperature prior to planting (approximately two weeks). (b) A seed treatment formulation is prepared by diluting Cruiser® […] seed treatment insecticide (Syngenta Crop Protection, Inc), which contains 49% thiamethoxam and the base fungicide concentrate described in (a), into water as a carrier. […] Seed treated are allowed to air dry and shipped and stored at ambient temperature prior to planting (approximately two weeks). (c) An abamectin seed treatment formulation is prepared by diluting an abamectin […] seed treatment nematicide formulation containing 46.3% abamectin and the base fungicide concentrate (a), into water as a carrier. […] Seed treated were allowed to air dry and were shipped and stored at ambient temperature prior to planting (approximately two weeks). The above formulations of thiamethoxam and abamectin were combined together into water as a carrier and with the base fungicide (a). […] This formulation dilution was applied for one to two minutes at ambient temperature to approximately one kilogram of Delta and Pine Land cottonseed (DP 555 BR) in a Hege seed treater. Seed treated were allowed to air dry and were shipped and stored at ambient temperature prior to planting (approximately two weeks). Control (a) and treated cottonseed (b) (c) and (d) were planted in field plots in two separate trials (1) and (2) as follows: Cottonseed is sown (4 seeds per foot) in plots with dimensions of 2 rows (36 inch row spacing) by 30-feet in a randomized complete block layout consisting of an control check (a), abamectin plus a base fungicide (c), thiamethoxam plus a base fungicide (b) and the combination of thiamethoxam and abamectin plus a base fungicide (d). […] Thrips were collected from five random plants within each replication of each treatment by collecting thrips in alcohol and counting the numbers of thrips using a dissecting scope in the laboratory.

Molecule	thrips control (14 and 21 days after planting, cotton seed treatment)	Adult Thrips 14 DAP (Trial (1))	Immature Thrips 14 DAP (Trial (1))	Immature Thrips 21 DAP (Trial (1))	Damage 21 DAP (Trial (1))	Immature Thrips 14 DAP (Trial (2))	thrips control compared to the untreated check (trials 1 and 2, cotton seed treatment)
CN1COCN(Cc2cnc(Cl)s2)/C1=N\[N+](=O)[O-] [Thiamethoxam (b), thiamethoxam]	approximately 85%	5 per five plants	13 per five plants	20.25 per five plants	3.3	15 per five plants	–
abamectin [Abamectin (c)]	–	13 per five plants	39.25 per five plants	50.5 per five plants	4	71.5 per five plants	~50%
